Patent US20250368666A1, “INDAZOLE COMPOUNDS” (TYRA BIOSCIENCES, INC., priority 2022, published 2025)
Read-outs that look alike come from different tables or passages of the source.

Tests used:
[1] = target: T1, FGFR1 (Homo sapiens, UniProt P11362); test: Kinase binding assay (kinase-tagged T7 phage, affinity beads, qPCR), Kd; conditions: read-out: FGFR1 (Kd nM)
T1 construct: made in house; host or cells: E. coli (BL21-derived), T7 phage
Protocol: (§1) Kinase-tagged T7 phage strains were prepared in an E. coli host derived from the BL21 strain. E. coli were grown to log-phase and infected with T7 phage and incubated with shaking at 32° C. until lysis. The lysates were centrifuged and filtered to remove cell debris. Streptavidin-coated magnetic beads were treated with biotinylated small molecule ligands for 30 minutes at room temperature to generate affinity resins for kinase assays. The liganded beads were blocked with excess biotin and washed with blocking buffer SeaBlock (Pierce), 1% BSA, 0.05% Tween 20, 1 mM DTT to remove unbound ligand and to reduce non-specific binding.
(§2) Test compounds were prepared as 111× stocks in 100% DMSO. Kds were determined using an 11-point 3-fold compound dilution series with three DMSO control points. […] The compounds were then diluted directly into the assays such that the final concentration of DMSO was 0.9%. All reactions performed in polypropylene 384-well plate. Each was a final volume of 0.02 ml. […] The kinase concentration in the eluates was measured by qPCR.
(§3) Binding constants were calculated with a standard dose-response curve using the Hill equation: […]
(§4) The Hill Slope was set to −1. Curves were fitted using a non-linear least square fit with the Levenberg-Marquardt algorithm.

[2] = target: T2, FGFR3 (Homo sapiens, UniProt P22607); test: as above; conditions: read-out: FGFR3 (Kd nM)
T2 construct: made in house; host or cells: E. coli (BL21-derived), T7 phage
Protocol: as §1, §2, §3, §4

[3] = kinase binding assay, 11-point 3-fold dilution series

T2 sequence (P22607 23-806): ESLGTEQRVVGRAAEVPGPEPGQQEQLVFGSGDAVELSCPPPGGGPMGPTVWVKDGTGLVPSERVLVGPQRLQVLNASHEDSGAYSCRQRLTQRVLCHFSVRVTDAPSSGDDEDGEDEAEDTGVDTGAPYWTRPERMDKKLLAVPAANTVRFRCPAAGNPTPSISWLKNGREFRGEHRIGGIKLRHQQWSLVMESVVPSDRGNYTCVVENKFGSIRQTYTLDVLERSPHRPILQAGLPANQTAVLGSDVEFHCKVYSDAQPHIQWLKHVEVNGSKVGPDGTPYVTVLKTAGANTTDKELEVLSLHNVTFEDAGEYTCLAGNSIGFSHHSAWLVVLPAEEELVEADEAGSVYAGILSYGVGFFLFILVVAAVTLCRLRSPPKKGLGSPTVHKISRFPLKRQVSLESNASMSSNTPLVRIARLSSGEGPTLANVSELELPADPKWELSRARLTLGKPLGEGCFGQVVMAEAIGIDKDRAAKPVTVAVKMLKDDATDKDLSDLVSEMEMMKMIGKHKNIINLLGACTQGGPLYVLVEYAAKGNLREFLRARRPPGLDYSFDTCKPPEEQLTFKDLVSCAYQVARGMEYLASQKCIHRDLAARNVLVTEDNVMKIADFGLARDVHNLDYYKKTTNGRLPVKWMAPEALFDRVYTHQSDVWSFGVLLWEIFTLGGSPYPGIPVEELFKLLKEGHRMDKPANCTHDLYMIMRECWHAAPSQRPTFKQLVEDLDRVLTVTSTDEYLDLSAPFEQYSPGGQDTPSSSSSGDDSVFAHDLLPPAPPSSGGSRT
T1 sequence (P11362 22-822): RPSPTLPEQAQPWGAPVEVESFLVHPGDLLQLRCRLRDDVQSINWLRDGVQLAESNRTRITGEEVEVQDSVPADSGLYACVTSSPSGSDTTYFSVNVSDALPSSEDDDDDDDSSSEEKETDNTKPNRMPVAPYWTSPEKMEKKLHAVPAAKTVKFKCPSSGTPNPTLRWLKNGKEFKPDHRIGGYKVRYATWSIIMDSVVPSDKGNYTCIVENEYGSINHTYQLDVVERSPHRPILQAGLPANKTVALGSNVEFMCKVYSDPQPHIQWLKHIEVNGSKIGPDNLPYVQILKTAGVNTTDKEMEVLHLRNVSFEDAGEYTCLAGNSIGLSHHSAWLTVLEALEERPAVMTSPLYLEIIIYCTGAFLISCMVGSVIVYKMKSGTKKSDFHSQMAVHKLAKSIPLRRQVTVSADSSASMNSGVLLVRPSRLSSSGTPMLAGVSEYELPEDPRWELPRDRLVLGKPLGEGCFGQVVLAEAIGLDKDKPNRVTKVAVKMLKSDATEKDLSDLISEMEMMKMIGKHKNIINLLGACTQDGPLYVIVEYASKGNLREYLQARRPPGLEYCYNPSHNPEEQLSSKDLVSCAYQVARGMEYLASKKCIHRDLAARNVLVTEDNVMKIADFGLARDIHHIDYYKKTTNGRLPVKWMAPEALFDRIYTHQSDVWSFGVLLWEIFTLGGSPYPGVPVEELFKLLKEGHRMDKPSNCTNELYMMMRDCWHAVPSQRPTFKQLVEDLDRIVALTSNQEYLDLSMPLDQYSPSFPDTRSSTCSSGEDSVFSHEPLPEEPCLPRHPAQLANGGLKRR

SMILES	Kd [1] [nM]	Kd [2] [nM]	Kd [1, 3] [nM]	Kd [2, 3] [nM]
C[C@H](O)CC1(N)CN(c2ccc(-c3n[nH]c4ccc(O[C@H](C)c5c(Cl)cncc5Cl)cc34)nn2)C1 [Example 373, (S)-1-(3-amino-1-(6-(5-((R)-1-(3,5-dichloropyridin-4-yl)ethoxy)-1H-indazol-3-yl)pyridazin-3-yl)azetidin-3-yl)propan-2-ol]	1 to 50	1 to 50		
C[C@@H](Oc1ccc2[nH]nc(-c3cnc(N4CC[C@@](C)(N)C4)c(F)c3)c2c1)c1c(Cl)cncc1Cl [Example 408, (R)-1-(5-(5-((R)-1-(3,5-dichloropyridin-4-yl)ethoxy)-1H-indazol-3-yl)-3-fluoropyridin-2-yl)-3-methylpyrrolidin-3-amine]			1 to 50	
COc1cc2[nH]nc(-c3ccc(N4CC(C)(N)C4)nc3)c2cc1O[C@H](C)c1c(Cl)cncc1Cl [Example 379, (R)-1-(5-(5-(1-(3,5-dichloropyridin-4-yl)ethoxy)-6-methoxy-1H-indazol-3-yl)pyridin-2-yl)-3-methylazetidin-3-amine]	1 to 50	1 to 50		
C[C@@H](Oc1ccc2[nH]nc(-c3cnc(N4CC(N)(C(=O)N(C)C)C4)c(F)c3)c2c1)c1c(Cl)cncc1Cl [Example 293, (R)-3-amino-1-(5-(5-(1-(3,5-dichloropyridin-4-yl)ethoxy)-1H-indazol-3-yl)-3-fluoropyridin-2-yl)-N,N-dimethylazetidine-3-carboxamide]	1 to 50	1 to 50		
C[C@@H](Oc1ccc2[nH]nc(-c3cnc(N4CC[C@@](N)(c5ccnn5C)C4)c(F)c3)c2c1)c1c(Cl)cncc1Cl [Example 405, (S)-1-(5-(5-((R)-1-(3,5-dichloropyridin-4-yl)ethoxy)-1H-indazol-3-yl)-3-fluoropyridin-2-yl)-3-(1-methyl-1H-pyrazol-5-yl)pyrrolidin-3-amine]			1 to 50	1 to 50
COc1cc2[nH]nc(-c3cnc(N4CC(C)(N)C4)nc3)c2cc1O[C@H](C)c1c(Cl)cncc1Cl [Example 302, (R)-1-(5-(5-(1-(3,5-dichloropyridin-4-yl)ethoxy)-6-methoxy-1H-indazol-3-yl)pyrimidin-2-yl)-3-methylazetidin-3-amine]	1 to 50	1 to 50		
CNC(=O)CNC1(C)CN(c2ncc(-c3n[nH]c4ccc(O[C@H](C)c5c(Cl)cncc5Cl)cc34)cc2F)C1 [Example 399, (R)-2-((1-(5-(5-(1-(3,5-dichloropyridin-4-yl)ethoxy)-1H-indazol-3-yl)-3-fluoropyridin-2-yl)-3-methylazetidin-3-yl)amino)-N-methylacetamide]			1 to 50	1 to 50
CC[C@@]1(N)CCN(c2ccc(-c3n[nH]c4ccc(O[C@H](C)c5c(Cl)cncc5Cl)cc34)nn2)C1 [Example 402, (R)-1-(6-(5-((R)-1-(3,5-dichloropyridin-4-yl)ethoxy)-1H-indazol-3-yl)pyridazin-3-yl)-3-ethylpyrrolidin-3-amine]			1 to 50	1 to 50
C[C@@H](Oc1ccc2[nH]nc(-c3cnc(N4CC(CC#N)(N(C)C)C4)c(F)c3)c2c1)c1c(Cl)cncc1Cl [Example 252, (R)-2-(1-(5-(5-(1-(3,5-dichloropyridin-4-yl)ethoxy)-1H-indazol-3-yl)-3-fluoropyridin-2-yl)-3-(dimethyl-amino)azeti-din-3-yl)acetonitrile]	1 to 50	1 to 50		
C[C@@H](Oc1ccc2[nH]nc(-c3ccc(N4CC[C@](C)(N)C4)nn3)c2c1)c1c(Cl)cncc1Cl [Example 407, (S)-1-(6-(5-((R)-1-(3,5-dichloropyridin-4-yl)ethoxy)-1H-indazol-3-yl)pyridazin-3-yl)-3-methylpyrrolidin-3-amine]			1 to 50	1 to 50
CCNC1(C)CN(c2ncc(-c3n[nH]c4ccc(O[C@H](C)c5c(Cl)cncc5Cl)cc34)cn2)C1 [Example 238, (R)-1-(5-(5-(1-(3,5-dichloropyridin-4-yl)ethoxy)-1H-indazol-3-yl)pyrimidin-2-yl)-N-ethyl-3-methylazetidin-3-amine]	1 to 50	1 to 50		
C[C@@H](O)CC1(N)CN(c2ccc(-c3n[nH]c4ccc(O[C@H](C)c5c(Cl)cncc5Cl)cc34)nn2)C1 [Example 374, (R)-1-(3-amino-1-(6-(5-((R)-1-(3,5-dichloropyridin-4-yl)ethoxy)-1H-indazol-3-yl)pyridazin-3-yl)azetidin-3-yl)propan-2-ol]	1 to 50	1 to 50		
C[C@@H](Oc1ccc2[nH]nc(-c3cnc(N4CC(N)(CS(C)(=O)=O)C4)c(F)c3)c2c1)c1c(Cl)cncc1Cl [Example 412, 1-[5-[5-[(1R)-1-(3,5-dichloro-4-pyridyl)ethoxy]-1H-indazol-3-yl]-3-fluoro-2-pyridyl]-3-(methylsulfonyl-methyl)azetidin-3-amine]			1 to 50	1 to 50

Other lines, results leading:

Kd [1] [nM]	Kd [2] [nM]	Kd [1, 3] [nM]	Kd [2, 3] [nM]	SMILES
1 to 50	1 to 50			COc1cc2[nH]nc(-c3ccc(N4CC[C@](C)(N)C4)nc3)c2cc1O[C@H](C)c1c(Cl)cncc1Cl [Example 381, (S)-1-(5-(5-((R)-1-(3,5-dichloropyridin-4-yl)ethoxy)-6-methoxy-1H-indazol-3-yl)pyridin-2-yl)-3-methyl-pyrrolidin-3-amine]
		1 to 50	1 to 50	C[C@@H](Oc1ccc2[nH]nc(-c3ccc(N4CC[C@](N)(Cc5ccn(C)n5)C4)nn3)c2c1)c1c(Cl)cncc1Cl [Example 426, (S)-1-(6-(5-((R)-1-(3,5-dichloropyridin-4-yl)ethoxy)-1H-indazol-3-yl)pyridazin-3-yl)-3-((1-methyl-1H-pyrazol-3-yl)methyl)pyrrolidin-3-amine]
1 to 50	1 to 50			C=CCNC1(C)CN(c2ccc(-c3n[nH]c4ccc(O[C@H](C)c5c(Cl)cncc5Cl)cc34)c(F)n2)C1 [Example 240, (R)-N-ally1-1-(5-(5-(1-(3,5-dichloropyridin-4-yl)ethoxy)-1H-indazol-3-yl)-6-fluoropyridin-2-yl)-3-methylazetidin-3-amine]
1 to 50	1 to 50			COc1cc2[nH]nc(-c3ccc(N4CCC(C)(N)C4)nc3)c2cc1O[C@H](C)c1c(Cl)cncc1Cl (stereo in doubt) [Example 380, (R)-1-(5-(5-((R)-1-(3,5-dichloropyridin-4-yl)ethoxy)-6-methoxy-1H-indazol-3-yl)pyridin-2-yl)-3-methylpyrrolidin-3-amine]
1 to 50	1 to 50			C[C@@H](Oc1ccc2[nH]nc(-c3ccc(N4CC(N)(CCCO)C4)nn3)c2c1)c1c(Cl)cncc1Cl [Example 372, (R)-3-(3-amino-1-(6-(5-(1-(3,5-dichloropyridin-4-yl)ethoxy)-1H-indazol-3-yl)pyridazin-3-yl)azetidin-3-yl)propan-1-ol]
		1 to 50	1 to 50	COc1cc2[nH]nc(-c3ccc(N4CC(C)(N)C4)nn3)c2cc1O[C@H](C)c1c(Cl)cncc1Cl [Example 393, (R)-1-(6-(5-(1-(3,5-dichloropyridin-4-yl)ethoxy)-6-methoxy-1H-indazol-3-yl)pyridazin-3-yl)-3-methylazetidin-3-amine]
		1 to 50	1 to 50	C[C@@H](Oc1ccc2[nH]nc(-c3ccc(N4CC[C@@](N)(Cc5ccnn5C)C4)nn3)c2c1)c1c(Cl)cncc1Cl [Example 425, (R)-1-(6-(5-((R)-1-(3,5-dichloropyridin-4-yl)ethoxy)-1H-indazol-3-yl)pyridazin-3-yl)-3-((1-methyl-1H-pyrazol-5-yl)methyl)pyrrolidin-3-amine]
1 to 50	1 to 50			C[C@@H](Oc1ccc2[nH]nc(-c3ccc(N4CC(N)(CCF)C4)nn3)c2c1)c1c(Cl)cncc1Cl [Example 292, (R)-1-(6-(5-(1-(3,5-dichloropyridin-4-yl)ethoxy)-1H-indazol-3-yl)pyridazin-3-yl)-3-(2-fluoroethyl)azetidin-3-amine]
		1 to 50	1 to 50	C[C@@H](Oc1ccc2[nH]nc(-c3ccc(N4CC[C@@](N)(Cc5ccn(C)n5)C4)nn3)c2c1)c1c(Cl)cncc1Cl [Example 427, (R)-1-(6-(5-((R)-1-(3,5-dichloropyridin-4-yl)ethoxy)-1H-indazol-3-yl)pyridazin-3-yl)-3-((1-methyl-1H-pyrazol-3-yl)methyl)pyrrolidin-3-amine]
1 to 50	1 to 50			C[C@@H](Oc1ccc2[nH]nc(-c3cnc(N4CC(N)(CC5CCCO5)C4)c(F)c3)c2c1)c1c(Cl)cncc1Cl (stereo partly drawn) [Example 288, 1-(5-(5-((R)-1-(3,5-dichloropyridin-4-yl)ethoxy)-1H-indazol-3-yl)-3-fluoropyridin-2-yl)-3-((tetrahydrofuran-2-yl)methyl)azetidin-3-amine]
1 to 50	1 to 50			C[C@@H](Oc1ccc2[nH]nc(-c3cnc(N4CC(N)(C5CCOCC5)C4)c(F)c3)c2c1)c1c(Cl)cncc1Cl [Example 263, (R)-1-(5-(5-(1-(3,5-dichloropyridin-4-yl)ethoxy)-1H-indazol-3-yl)-3-fluoropyridin-2-yl)-3-(tetrahydro-2H-pyran-4-yl)azetidin-3-amine]
		1 to 50	1 to 50	C[C@@H](Oc1ccc2[nH]nc(-c3cnc(N4CC[C@](C)(N)C4)c(F)c3)c2c1)c1c(Cl)cncc1Cl [Example 396, (S)-1-(5-(5-((R)-1-(3,5-dichloropyridin-4-yl)ethoxy)-1H-indazol-3-yl)-3-fluoropyridin-2-yl)-3-methylpyrrolidin-3-amine]
